CC(=O)N1CN(C(C)=O)CN(C(C)=O)C1
solubility (mole fraction)
Details	298 K	303 K	308 K	313 K	318 K
in acetonitrile	0.0478	0.0695	0.102	0.142	0.202
in ethyl acetate	0.0153	0.0178	0.0198	0.0236	0.0271
in methanol	0.204	0.238	0.283	0.335	0.395
in water	0.00434	0.00612	0.0085	0.0125	0.018

From BigSolDB 2.1
